{
  "source": "patent US9018216B2",
  "about": "“Solid forms of (R)-2-(5-(2-(3-ethylureido)-6-fluoro-7-(tetrahydrofuran-2-yl)-1H-benzo[d]imidazol-5-yl)pyrimidin-2-yl)propan-2-yl dihydrogen phosphate and salts thereof” (priority 2012, dated 2015)",
  "key": {"[1]": {"tested_on": "Enterococcus faecalis ATCC 29212", "assay": "Gyrase MIC determination using microdilution broth method (Protocol 1)", "type": "cell-based", "conditions": "Enterococcus faecalis, ATCC29212, Enterococcus faecalis ATCC 29212, with 3% Laked Horse Blood, read-out: MIC"}, "[2]": {"tested_on": "Escherichia coli AG100", "assay": "Gyrase MIC determination against Gram negatives using microdilution broth method (Protocol 2)", "type": "cell-based", "conditions": "read-out: MIC", "experimental": "Compounds of this invention were tested for antimicrobial activity by susceptibility testing in liquid media. […] The specific protocols used were as follows:\nProtocol 2: Gyrase MIC Determination of Compounds Against Gram Negatives Using Microdilution Broth Method\nStrains (MHII Media for all; Broth and Agar): • 1. Escherichia coli AG100 WT • 2. Escherichia coli AG100 tolC • 3. […] Haemophilus influenzae Rd0894 (AcrA−)\nInoculum Prep: • 1. Using the BBL Prompt kit, picked 5 big or 10 small, well separated colonies from cultures grown on agar medium and inoculated 1 mL sterile saline that came with the kit. • 2. Vortexed the wells for ˜30 s to give a suspension of ˜10^8 cells/mL. Actual density could be confirmed by plating out dilutions of this suspension. • 3. Diluted the suspension 1/100 by transferring 0.15 mL of cells into 15 mL (˜10^6 cells/mL) sterile broth (see below) for each plate of compounds tested, swirled to mix. […] Used 50 μl cells (˜5×10^4 cells) to inoculate each microtiter well containing 50 μl of the drug diluted in broth (see below).\nDrug Dilutions, Inoculation, MIC Determination: • 1. […] Diluted drug/compound stocks to 200× desired final concentration in 50 μL DMSO. If starting concentration of MICs was 8 μg/mL final concentration, then required 6.25 μL of stock+43.75 μL DMSO. Each 200× stock was placed in a separate row of column 1 of a new 96 well microtiter plate. • 3. Added 25 μL of DMSO to columns 2-12 of all rows of the microtiter plate containing 200× compound stocks and serially diluted 25 μL from column 1 through column 11, changed tips after each column. i.e. 25 μL compound+25 μL DMSO=2× dilution. Left “no compound” DMSO well at the end of the series for control. • 4. For each strain tested, prepared two microtiter plates with 50 μL of MHII broth using a Matrix pipettor. • 5. Transferred 0.5 μL of each dilution (w/Matrix auto-pipettor) to 50 μL of medium/microtiter well prior to the addition of 50 μl of cells. The usual starting concentration of compound was 8 μg/mL after the 1/200 dilution into medium+cells−compound concentrations decreased in 2× steps across the rows of a microtiter plate. All MICs were done in duplicate. • 6. All wells were inoculated with 50 μl of diluted cell suspension (see above) to a final volume of 100 μl. • 7. After inoculum was added, each well was mixed thoroughly with a manual multichannel pipettor; same tips were used going from low to high concentration of drug in the same microtiter plate. • 8. Plates were incubated at 37° C. for at least 18 hours. • 9.\nExamined the test plates after the correct incubation time and read the MIC endpoint at the concentration where a marked reduction occurred in the appearance of growth on the test plate as compared to that of growth on the positive control plates."}, "[3]": {"tested_on": "Streptococcus pneumoniae ATCC 10015", "assay": "Gyrase MIC determination using microdilution broth method (Protocol 1)", "type": "cell-based", "conditions": "ATCC10015, Streptococcus pneumoniae ATCC 10015, with 3% Laked Horse Blood"}, "[4]": {"assay": "Stability of the solid forms (net increase in total impurities at 40 C/30% RH)", "type": "physicochemical", "conditions": "17 days"}, "[5]": {"tested_on": "Staphylococcus aureus ATCC 29213", "assay": "microbe, parasite or virus in culture", "type": "cell-based", "conditions": "Staphylococcus aureus, Protocol 1"}, "[6]": {"tested_on": "Enterococcus faecium ATCC 49624", "assay": "Gyrase MIC determination using microdilution broth method (Protocol 1)", "type": "cell-based", "conditions": "ATCC49624, Enterococcus faecium ATCC 49624 with 3% Laked Horse Blood, read-out: MIC"}},
  "note": "Read-outs that look alike come from different tables or passages of the source.",
  "data": [
    {"smiles": "CCNC(=O)Nc1nc2cc(-c3cnc(C(C)(C)OP(=O)([O-])[O-])nc3)c(F)c([C@H]3CCCO3)c2[nH]1.[Na+].[Na+]", "note": "[Form X, disodium (R)-2-(5-(2-(3-ethylureido)-6-fluoro-7-(tetrahydrofuran-2-yl)-1H-benzo[d]imidazol-5-yl)pyrimidin-2-yl)propan-2-yl phosphate]", "values": [
      {"measurement": "MIC", "setting": "[1]", "result": 2, "unit": "µg/mL"},
      {"measurement": "MIC", "setting": "[2]; Escherichia coli AG100 WT", "result": "> 16", "unit": "µg/mL"},
      {"measurement": "MIC", "setting": "[2]; Escherichia coli, AG100, Escherichia coli AG100 tolC", "result": 2, "unit": "µg/mL"},
      {"measurement": "MIC", "setting": "[3]", "result": 0.25, "unit": "µg/mL"},
      {"measurement": "Net % increase in total impurities", "setting": "[4]", "result": 0.59, "unit": "%"},
      {"measurement": "MIC", "setting": "[5]; ATCC29213, Staphylococcus aureus ATCC 29213 GyrB T173I", "result": "> 16", "unit": "µg/mL"},
      {"measurement": "MIC", "setting": "[5]; ATCC29213, Staphylococcus aureus ATCC 29213 with 50% Mouse Serum", "result": 2, "unit": "µg/mL"},
      {"measurement": "MIC", "setting": "[6]", "result": 4, "unit": "µg/mL"}
    ]}
  ]
}
